Assays:
Format in all cases: in vivo
[1] = tested on: Italian ryegrass (Lolium multiflorum); test: Test B pre-/postemergence plant response
Summary of the method: (§1)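 Ratings reflect visual injury versus untreated controls, from 0 for no effect to 100 for complete control, assessed roughly 10 days after treatment. Formulation: non-phytotoxic solvent mix with surfactant; pre- and postemergence sprays on plants grown in loam soil and sand.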

kochia (Kochia scoparia) [2] = test: Test B pre-/postemergence plant response
Summary of the method: as §1

[3] = tested on: ragweed (common ragweed, Ambrosia elatior); test: Test B pre-/postemergence plant response
Summary of the method: as §1

kochia (Kochia scoparia) [4] = test: Test D postemergence plant response; conditions: for Plant response rating (scale 0 to 100), Kochia: 16 g ai/ha; for Kochia plant response rating: 31 g ai/ha, scale 0 to 100 (0 no effect, 100 complete control); for Plant response rating, Kochia: scale 0 to 100, 0 no effect, 100 complete control
Summary of the method: (§2)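 Plants grown in pots of peat moss–vermiculite medium with wetting agent and starter nutrients received postemergence applications of the formulated test chemicals at 2 to 18 cm height (1- to 4-leaf stage). After 13 to 15 days in a greenhouse, injury was scored visually against untreated controls, 0 (no effect) to 100 (complete control).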

wild oat (Avena fatua) = test: Test D postemergence plant response; conditions: for Plant response rating (scale 0 to 100), Oat, Wild: 16 g ai/ha; for Plant response rating, Oat, Wild: 125 g ai/ha
Summary of the method: as §2

[5] = 31 g ai/ha, Preemergence, 0 to 100 scale where 0 is no effect and 100 is complete control
[6] = 125 g ai/ha, postemergence, 0 to 100 scale, 0 no effect, 100 complete control
[7] = Postemergence, 31 g ai/ha, 0 to 100 scale (0 no effect, 100 complete control)
[8] = Preemergence, 125 g ai/ha, 0 to 100 scale (0 no effect, 100 complete control)
[9] = 31 g ai/ha, scale 0 to 100 (0 no effect, 100 complete control)
[10] = 62 g ai/ha, scale 0 to 100, 0 no effect, 100 complete control
[11] = scale 0 to 100, 0 no effect, 100 complete control
[12] = Postemergence, 500 g ai/ha, 0 to 100 scale (0 no effect, 100 complete control)
[13] = Preemergence, 500 g ai/ha, 0 to 100 scale where 0 is no effect and 100 is complete control
[14] = Postemergence, 1000 g ai/ha, 0 to 100 scale (0 no effect, 100 complete control)
[15] = Preemergence, 1000 g ai/ha, 0 to 100 scale (0 no effect, 100 complete control)

SMILES | Plant response rating, Ryegrass, Italian [1, 6] | Ryegrass, Italian plant response rating [1, 8] | Plant response rating, Kochia (kochia (Kochia scoparia) [2]; [6]) | Kochia plant response rating (kochia (Kochia scoparia) [2]; [8]) | Plant response rating, Ragweed [3, 6] | Ragweed plant response rating [3, 8] | Plant response rating (scale 0 to 100), Kochia (kochia (Kochia scoparia) [4]) | Kochia plant response rating (kochia (Kochia scoparia) [4]) | Plant response rating, Kochia (kochia (Kochia scoparia) [4]; 62 g ai/ha) | Plant response rating, Kochia (kochia (Kochia scoparia) [4]; 125 g ai/ha) | Plant response rating (scale 0 to 100), Oat, Wild (wild oat (Avena fatua)) | Oat, Wild plant response rating (wild oat (Avena fatua); [9]) | Oat, Wild plant response rating (wild oat (Avena fatua); [10]) | Plant response rating, Oat, Wild (wild oat (Avena fatua); [11]) | Plant response rating, Ryegrass, Italian [1, 12] | Plant response rating, Ryegrass, Italian [1, 13] | Plant response rating, Kochia (kochia (Kochia scoparia) [2]; [12]) | Plant response rating, Kochia (kochia (Kochia scoparia) [2]; [13]) | Plant response rating, Ragweed [3, 12] | Plant response rating, Ragweed [3, 13] | further results
CC(F)(F)c1cc(-c2ccccc2Oc2ncc(Cl)cn2)on1 [Compound 178] | 30 | 10 | 100 | 20 | 10 | 0 | 90 | 95 | 100 | 100 | 0 | 0 | 5 | 5 | – | – | – | – | – | – | Plant response rating, Ryegrass, Italian [1, 5]: 0; Plant response rating, Ryegrass, Italian [1, 7]: 0; Plant response rating, Kochia (kochia (Kochia scoparia) [2]; [5]): 10; Plant response rating, Kochia (kochia (Kochia scoparia) [2]; [7]): 80; Plant response rating, Ragweed [3, 5]: 0; Plant response rating, Ragweed [3, 7]: 10
N#Cc1cccc(Oc2ncc(Cl)cn2)c1-c1cc(C(F)F)on1 [Compound 180] | 100 | 20 | 100 | 100 | 50 | 50 | 85 | 90 | 100 | 100 | 0 | 5 | 5 | 30 | 100 | 70 | 100 | 100 | 70 | 70 | –
Clc1cnc(Oc2ccccc2-c2cc(C3CC3)on2)nc1 [Compound 183] | 40 | 20 | 100 | 80 | 20 | 0 | 90 | 95 | 100 | 100 | 0 | 5 | 10 | 25 | 70 | 40 | 100 | 100 | 30 | 60 | –
Clc1cnc(Oc2ccccc2-c2ccon2)nc1 [Compound 185] | 0 | 0 | 90 | 40 | 70 | 10 | 0 | 0 | 5 | 30 | 0 | 0 | 0 | 5 | 0 | 0 | 100 | 100 | 100 | 90 | –
FCc1cc(-c2c(Br)cccc2Oc2ncc(Cl)cn2)no1 [Compound 191] | – | – | – | – | – | – | 50 | 80 | 85 | 90 | 0 | 0 | 5 | 5 | – | – | – | – | – | – | Plant response rating, Ryegrass, Italian [1, 14]: 100; Plant response rating, Ryegrass, Italian [1, 15]: 90; Plant response rating, Kochia (kochia (Kochia scoparia) [2]; [14]): 100; Plant response rating, Kochia (kochia (Kochia scoparia) [2]; [15]): 100; Plant response rating, Ragweed [3, 14]: 90; Plant response rating, Ragweed [3, 15]: 90
